According to article PMC12257394, “Design, Synthesis, and Biological Evaluation of Ferrocenyl–Cyclo-(Gly‑L‑Pro) Hybrids Sensitizing Multidrug-Resistant Cancer Cells to Anticancer Agents” (ACS Medicinal Chemistry Letters, 2025):
“Also recorded” adds a separate entry of the source.

Assays:
[1] = system: ABCG2-overexpressing SW620Mito cells; assay: MDR reversal assay (ERP), SW620Mito; assay type: cell-based, human; conditions: for ERP value, mitoxantrone + compound: SW620Mito (xlsx); for ERP = IC50(drug)MDR/IC50(drug+4)MDR: mitoxantrone, SW620Mito
Source text: We investigated the potency of 4a–e to inhibit ABC transporters (ABCB1, ABCC1, and ABCG2) by determining their enhancement of reversal potency (ERP) values. ERP represents fold changes in the IC50 values of anticancer drugs in multidrug-resistant cancer sublines (ABCB1-overexpressing SW620D, SW620E, and SW620V; ABCC1-overexpressing SW620M; ABCG2-overexpressing SW620C and SW620Mito) exposed to a combination of the investigated compounds and anticancer agents at equimolar concentrations, compared with values obtained with drugs alone (Tables S2 and S3 and Figure ).
Standards. Multidrug-resistant variants of SW620 cells were developed in our laboratory as described previously.10, 11 All cells were cultured under standard conditions (37°C, 5% CO2, 100% humidity) in high-glucose DMEM supplemented with GlutaMaxTM, HEPES (ThermoFisher Scientific, USA), and 10% fetal bovine serum (EURx, Poland). Cells were routinely tested for potential Mycoplasma contamination using the MycoProbe Mycoplasma Detection kit (R&D System, USA).
In total, 104 cells in 100 µL of complete medium were plated per well of a 96-well plate and left overnight to allow cells to adhere to the surface. Then, the cells were exposed to a desired concentration of tested compound(s). Stock solutions were prepared in DMSO and used immediately. The final DMSO concentration was constant and nontoxic (0.1% v/v). After 70-h incubation, neutral red was added to the final concentration of 1 mM. After another 2 h, the medium was aspirated, and cells were washed twice with PBS. Dye was released using 100 µL of a solubilizer (1% acetic acid in 50% ethanol) on an orbital shaker (10 min). Absorbance was read at 540 nm using EnVision Multilabel Plate Reader (Perkin Elmer, USA). Results were expressed as % of control. The IC50 parameters were calculated using GraphPad Prism version 10 (GraphPad Software, Boston, Massachusetts USA).
The enhancement of reversal potency (ERP) value determination
For MDR reversal assays, cytotoxic agents were co-administered with compounds 4a–4e at equimolar concentrations in a range of 10 nM to 100 µM. IC₅₀ values were determined in ABCB1-overexpressing SW620 cell line variants. The enhancement of reversal potency (ERP) was calculated using the following formula: ERP = IC₅₀(drug)MDR / IC₅₀(drug + compound)MDR. All experiments were performed in triplicate (n = 3).

SW620M cells = assay: Synergy determination (Bliss model, SynergyFinder), SW620M; assay type: cell-based, human; conditions: drug methotrexate + additive; for synergy score: Bliss model
Source text: (§1) In an ideal setting, the effect of cell exposure to a combination of a chemotherapeutic and an MDR inhibitor should be synergistic. […] The highest synergy scores identified an optimal concentration range where the combination exerted its maximal effect. […] In cisplatin-resistant SW620C cells, the low or lack of synergy observed for most compounds may be due to the additive effects of cisplatin and 4 rather than a true synergistic interaction. […]
(§2) To evaluate the potential interactions between putative ABC inhibitors and anticancer drugs, we utilized the Bliss independence model, as implemented in the SynergyFinder web application.13, 14 Synergy scores and the most synergistic area scores were calculated based on the normalized dose–response matrices. A synergy score below −10 indicates likely […]
(§3) above 10 is indicative of likely synergistic interactions.
(§4) All experiments were performed at least three times, and the data were statistically analyzed

ABCB1 = molecular target: T1, ABCB1 (Homo sapiens, UniProt P08183); assay: UIC-2 antibody-binding assay in SW620V cells; assay type: cell-based; conditions: 1 μM compound, n = 3
T1 construct: ABCB1-overexpressing SW620V cells; endogenous in cells; host or cells: SW620V (vincristine-resistant variant of SW620, developed in the authors' laboratory by drug selection)
Source text: (§5) To obtain deeper insight into the direct interactions between the investigated inhibitors and transporter protein molecules, we used two commercially available antibodies, UIC-2 and 5D3, which recognize the active forms of ABCB1 and ABCG2, respectively. These antibodies specifically recognize epitopes that are exposed when the transporter interacts with the allocrite.
(§6) A total of 106 parental SW620 cells expressing low level of ABC proteins or their multidrug - resistant variant SW620V cells (overexpressing ABCB1) or SW620Mito cells (overexpressing ABCG2) were suspended in 1 mL of complete culture medium supplemented with solvent (DMSO), a positive control (vincristine/mitoxantrone), or an investigated compound at a final concentration of 1 µM. APC-conjugated UIC2 anti-ABCB1/FITC-conjugated 5D3 anti-ABCG2 antibody or the respective isotype control was then added to a final concentration of 5 µg/mL, and the samples were incubated at 37°C for 60 min. Then, the cells were washed three times (100 × g for 10 min) with fresh medium and analyzed using a FACSymphony A1 (Becton, Dickinson and Company, New Jersey, USA) instrument. Results were expressed as a difference of median of fluorescence of a given sample (specific binding of antibody) and the respec tive isotype control (unspecific binding). […]
as §4

ABCG2 = molecular target: T2, ABCG2 (Homo sapiens, UniProt Q9UNQ0); assay: 5D3 antibody-binding assay in SW620Mito cells; assay type: cell-based; conditions: 1 μM compound, n = 3
T2 construct: ABCG2-overexpressing SW620C and SW620Mito; endogenous in cells; host or cells: SW620Mito (mitoxantrone-resistant variant of SW620, developed in the authors' laboratory by drug selection)
T2 sequence (Q9UNQ0 1-655): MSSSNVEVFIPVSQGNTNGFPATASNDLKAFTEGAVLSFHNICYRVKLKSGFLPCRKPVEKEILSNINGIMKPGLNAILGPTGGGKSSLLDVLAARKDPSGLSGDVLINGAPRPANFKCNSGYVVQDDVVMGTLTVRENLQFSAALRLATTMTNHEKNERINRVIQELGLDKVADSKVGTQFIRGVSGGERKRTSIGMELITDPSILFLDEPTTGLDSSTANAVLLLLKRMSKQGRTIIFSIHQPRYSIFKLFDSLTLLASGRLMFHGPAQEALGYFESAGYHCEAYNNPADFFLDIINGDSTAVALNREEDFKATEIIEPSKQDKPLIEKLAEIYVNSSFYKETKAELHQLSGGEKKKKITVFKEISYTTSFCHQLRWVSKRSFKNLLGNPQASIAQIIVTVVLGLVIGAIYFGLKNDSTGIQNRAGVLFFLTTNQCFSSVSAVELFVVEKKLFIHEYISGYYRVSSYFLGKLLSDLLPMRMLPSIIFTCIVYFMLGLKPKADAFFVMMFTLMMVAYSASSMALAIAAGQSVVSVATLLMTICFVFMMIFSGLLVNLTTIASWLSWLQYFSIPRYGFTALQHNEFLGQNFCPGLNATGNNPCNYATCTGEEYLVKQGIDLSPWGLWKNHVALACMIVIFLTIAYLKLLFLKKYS
Source text: as §5, §6, §4

SW620V cells = assay: Synergy determination (Bliss model, SynergyFinder), SW620V; assay type: cell-based, human; conditions: drug vincristine + additive; for synergy score: Bliss model
Source text: as §1, §2, §3, §4

T1 sequence (P08183 whole entry): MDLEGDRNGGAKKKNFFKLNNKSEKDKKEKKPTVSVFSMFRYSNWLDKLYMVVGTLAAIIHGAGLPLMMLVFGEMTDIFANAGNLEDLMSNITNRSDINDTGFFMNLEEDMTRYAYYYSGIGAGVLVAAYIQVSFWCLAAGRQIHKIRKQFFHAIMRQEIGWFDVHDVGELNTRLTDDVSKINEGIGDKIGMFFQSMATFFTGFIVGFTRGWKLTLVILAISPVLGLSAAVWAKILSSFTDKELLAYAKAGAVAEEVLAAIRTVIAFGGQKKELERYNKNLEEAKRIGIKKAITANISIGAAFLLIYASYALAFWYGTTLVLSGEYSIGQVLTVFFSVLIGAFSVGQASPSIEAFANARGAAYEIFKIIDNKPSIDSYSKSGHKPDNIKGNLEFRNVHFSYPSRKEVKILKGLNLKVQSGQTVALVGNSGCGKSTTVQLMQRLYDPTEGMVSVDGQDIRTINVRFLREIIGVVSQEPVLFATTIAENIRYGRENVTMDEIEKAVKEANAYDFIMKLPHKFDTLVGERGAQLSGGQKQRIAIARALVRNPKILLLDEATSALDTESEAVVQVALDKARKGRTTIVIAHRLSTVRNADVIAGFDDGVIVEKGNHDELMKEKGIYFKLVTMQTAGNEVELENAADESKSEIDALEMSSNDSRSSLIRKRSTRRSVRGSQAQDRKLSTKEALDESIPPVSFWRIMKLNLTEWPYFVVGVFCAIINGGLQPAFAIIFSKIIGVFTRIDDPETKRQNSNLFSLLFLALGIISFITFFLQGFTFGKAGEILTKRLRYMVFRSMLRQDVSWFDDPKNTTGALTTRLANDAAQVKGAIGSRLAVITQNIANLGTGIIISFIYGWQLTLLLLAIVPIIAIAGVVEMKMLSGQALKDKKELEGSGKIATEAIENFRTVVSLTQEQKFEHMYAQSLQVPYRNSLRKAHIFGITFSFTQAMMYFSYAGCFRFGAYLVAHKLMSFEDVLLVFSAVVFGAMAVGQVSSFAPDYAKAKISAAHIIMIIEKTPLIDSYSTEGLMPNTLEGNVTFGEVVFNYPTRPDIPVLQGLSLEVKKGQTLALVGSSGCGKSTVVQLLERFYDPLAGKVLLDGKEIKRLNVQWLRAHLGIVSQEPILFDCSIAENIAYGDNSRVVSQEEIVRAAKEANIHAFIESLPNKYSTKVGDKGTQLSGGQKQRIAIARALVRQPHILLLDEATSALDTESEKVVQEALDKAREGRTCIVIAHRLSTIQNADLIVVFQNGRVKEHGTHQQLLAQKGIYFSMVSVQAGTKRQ

SMILES: O=C1N/C(=C/c2cccc(-[c-]3cccc3)c2)C(=O)N2CCC[C@@H]12.[Fe+2].c1cc[cH-]c1 [(S,E)-4c]
- ERP value, mitoxantrone + compound [1]: 0.87
- ERP = IC50(drug)MDR/IC50(drug+4)MDR [1]: 0.87
- most synergistic area score (SW620M cells): 0.00
- synergy score (SW620M cells): –2.83
- UIC-2 antibody binding to ABCB1 (ABCB1): no detectable interaction
- 5D3 antibody binding to ABCG2 (ABCG2): no detectable interaction

SMILES: O=C1N/C(=C\c2ccc(-[c-]3cccc3)cc2)C(=O)N2CCC[C@@H]12.[Fe+2].c1cc[cH-]c1 [(S,Z)-4d]
- ERP value, mitoxantrone + compound [1]: 10.3
- ERP = IC50(drug)MDR/IC50(drug+4)MDR [1]: 10.3
- most synergistic area score (SW620M cells): 0.00
- synergy score (SW620M cells): –5.20
- most synergistic area score (SW620V cells): 24.93
- synergy score (SW620V cells): 13.6
- UIC-2 antibody binding to ABCB1 (ABCB1): binding patterns expected for ABCB1 allocrites; also recorded: enhance UIC-2 antibody binding
- 5D3 antibody binding to ABCG2 (ABCG2): recognized as ABCG2 allocrites

SMILES: O=C1N/C(=C\c2ccccc2-[c-]2cccc2)C(=O)N2CCC[C@@H]12.[Fe+2].c1cc[cH-]c1 [(S,Z)-4b]
- ERP value, mitoxantrone + compound [1]: 9.11
- ERP = IC50(drug)MDR/IC50(drug+4)MDR [1]: 9.11
- most synergistic area score (SW620M cells): 1.57
- synergy score (SW620M cells): –5.03
- most synergistic area score (SW620V cells): 27.24
- synergy score (SW620V cells): 7.15
- UIC-2 antibody binding to ABCB1 (ABCB1): binding patterns expected for ABCB1 allocrites; also recorded: enhance UIC-2 antibody binding
- 5D3 antibody binding to ABCG2 (ABCG2): recognized as ABCG2 allocrites

SMILES: O=C1N/C(=C\c2ccccc2)C(=O)N2CCC[C@@H]12 [(S,Z)-4e]
- ERP value, mitoxantrone + compound [1]: 1.01
- ERP = IC50(drug)MDR/IC50(drug+4)MDR [1]: 1.01

SMILES: O=C1N/C(=C\[c-]2cccc2)C(=O)N2CCC[C@@H]12.[Fe+2].c1cc[cH-]c1 [(S,Z)-4a]
- ERP value, mitoxantrone + compound [1]: 4.61
- ERP = IC50(drug)MDR/IC50(drug+4)MDR [1]: 4.61
- most synergistic area score (SW620M cells): 3.56
- synergy score (SW620M cells): –3.78
- most synergistic area score (SW620V cells): 15.88
- synergy score (SW620V cells): 4.27
- UIC-2 antibody binding to ABCB1 (ABCB1): binding patterns expected for ABCB1 allocrites
- 5D3 antibody binding to ABCG2 (ABCG2): recognized as ABCG2 allocrites

SMILES: O=C1N/C(=C/c2ccccc2)C(=O)N2CCC[C@@H]12 [(S,E)-4e]
- ERP value, mitoxantrone + compound [1]: 0.82
- ERP = IC50(drug)MDR/IC50(drug+4)MDR [1]: 0.82
